Data published in US20240199692A1 (priority 2019, published 2024).
Where two headings read alike, the source gives them in different places. *1 amine or outer side, *2 acyl side, *3 side chain or, on linkers, in order; H or OH if unused. Where a SMILES comes first, the peptide text is derived from it. [ ]: non-standard residue; d: D form. The star is where a group is joined. PhSO2(4-NHCOPh(4-CONH2)) = NC(=O)c1ccc(C(=O)Nc2ccc(S(=O)(=O)*)cc2)cc1; Phenylsulfonyl(4-anisamido) = COc1ccc(C(=O)Nc2ccc(S(=O)(=O)*)cc2)cc1; Benzoyl(4-(4-EtNHCO-PhO)) = CCNC(=O)c1ccc(Oc2ccc(C(=O)*)cc2)cc1; X1 = O=C(Nc1ccc(S(=O)(=O)*)cc1)c1ccc(OC(F)(F)F)cc1; X8 = CCCOc1ccc(C(=O)Nc2ccc(S(=O)(=O)*)cc2)cc1; X2 = CCOc1ccc(C(=O)Nc2ccc(S(=O)(=O)*)cc2)cc1; Benzoyl(4-OPh) = O=C(c1ccc(Oc2ccccc2)cc1)*; d(γGlu) = O=C(O)[C@@H](CCC(=O)[*:2])N[*:1]; d(βAsp) = O=C(O)[C@@H](CC(=O)[*:2])N[*:1]; X7 = O=S(=O)(c1ccc(-c2ccc(OCCO)cc2)cc1)*; Pro(4S-NH2) = N[C@@H]1CN[C@H](C(=O)O)C1; NMeI = CC[C@H](C)[C@H](NC)C(=O)O; NMeE = CN[C@@H](CCC(=O)O)C(=O)O; NMeN = CN[C@@H](CC(N)=O)C(=O)O; NMeL = CN[C@@H](CC(C)C)C(=O)O; β3hP = O=C(O)C[C@@H]1CCCN1; Dab = NCC[C@H](N)C(=O)O; Dap = NC[C@H](N)C(=O)O; Aib = CC(C)(N)C(=O)O; Ava = NCCCCC(=O)O; GABA = NCCCC(=O)O; Sar = CNCC(=O)O

How the values were obtained:
[1] = target: T1, MMP2 (Homo sapiens, UniProt P08253); assay: Inhibitory effects on human MMP2 (Method 1), enzyme assay with MOCAc-Pro-Leu-Gly-Leu-A2pr(Dnp)-Ala-Arg-NH2 substrate, 96-well; assay type: biochemical
T1 sequence (P08253 110-660): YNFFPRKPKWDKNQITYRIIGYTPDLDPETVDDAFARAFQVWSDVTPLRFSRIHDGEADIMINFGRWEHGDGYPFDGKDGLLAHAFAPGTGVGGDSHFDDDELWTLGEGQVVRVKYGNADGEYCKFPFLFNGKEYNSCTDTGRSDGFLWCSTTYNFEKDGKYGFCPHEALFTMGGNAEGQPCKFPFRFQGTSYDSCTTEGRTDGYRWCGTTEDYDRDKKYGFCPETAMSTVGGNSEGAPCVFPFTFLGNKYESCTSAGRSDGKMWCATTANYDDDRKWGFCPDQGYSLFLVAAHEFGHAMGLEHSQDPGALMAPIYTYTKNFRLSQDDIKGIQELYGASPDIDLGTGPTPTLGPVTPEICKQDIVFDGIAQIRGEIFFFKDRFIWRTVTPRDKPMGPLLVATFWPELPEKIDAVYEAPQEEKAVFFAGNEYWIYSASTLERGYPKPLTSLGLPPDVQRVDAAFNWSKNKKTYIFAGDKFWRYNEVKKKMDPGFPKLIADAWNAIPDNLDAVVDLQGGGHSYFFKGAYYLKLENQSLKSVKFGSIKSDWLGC
Method: In a reaction solution [50 mmol/L Tris-HCl (pH 7.5), 150 mmol/L NaCl, 10 mmol/L CaCl2, 0.05% Brij L23], 100 μg/mL human recombinant MMP2 enzyme and 1 mmol/L 4-Aminophenylmercuric acetate were mixed together, and reacted at 37° C. for 60 minutes. The human MMP2 activated through the reaction was poured into a 96-well microplate to reach a final concentration of 0.7 or 7 ng/mL.

[2] = target: human MMP13 (Homo sapiens, UniProt P45452); assay: Inhibitory effects on human MMP13, enzyme assay; assay type: biochemical; details: Test Example 8
Method: The human MMP13 activated through the reaction was poured into a 96-well microplate to reach a final concentration of 5 ng/mL. […] Then, MOCAc-[…] was added to reach a final concentration of 6 μmol/L, and enzymatic reaction was initiated.

[3] = target: human MMP12 (Homo sapiens, UniProt P39900); assay: Inhibitory effects on human MMP12, enzyme assay; assay type: biochemical
Sequence of human MMP12 (P39900 106-470): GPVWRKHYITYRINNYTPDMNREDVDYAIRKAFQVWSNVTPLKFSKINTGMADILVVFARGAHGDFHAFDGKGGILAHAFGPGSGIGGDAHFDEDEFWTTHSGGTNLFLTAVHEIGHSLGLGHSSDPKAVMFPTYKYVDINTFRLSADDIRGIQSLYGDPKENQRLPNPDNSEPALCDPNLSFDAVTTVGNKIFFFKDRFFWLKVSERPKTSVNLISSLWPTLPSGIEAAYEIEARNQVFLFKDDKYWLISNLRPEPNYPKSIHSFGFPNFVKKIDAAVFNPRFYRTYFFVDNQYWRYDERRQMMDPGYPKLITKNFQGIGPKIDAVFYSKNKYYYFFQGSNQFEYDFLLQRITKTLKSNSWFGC

[4] = target: T1, MMP2; assay: Inhibitory effects on human MMP2 (Method 2), enzyme assay with MOCAc-Pro-Leu-Gly-Leu-A2pr(Dnp)-Ala-Arg-NH2 substrate, 384-well; assay type: biochemical; details: Test Example No. 1-2 (Method 2, 384-well microplate)
[5] = target: T1, MMP2; details: reported, see NPTL 19; cited from earlier work
[6] = Test Example No. 1-1 (Method 1, 96-well microplate), read-out: Human MMP2, IC50
[7] = Test Example 7, read-out: Human MMP12, IC50

Compound	IC50 [1, 6] [nM]	further results
CC[C@H](C)[C@@H](C(=O)N1CCC[C@H]1CC(N)=O)N(C)C(=O)[C@H](CC(C)C)NC(=O)[C@H](CCN)NC(=O)CC[C@@H](NS(=O)(=O)c1ccc(NC(=O)c2ccc(OC(F)(F)F)cc2)cc1)C(=O)O [Compound 701] ({X1-d(γGlu)}-[Dab]L[NMeI][β3hP]-NH2; N-terminus assumed)	0.27	IC50 [2]: 116 nM; IC50 [3, 7]: 169 nM
CC[C@H](C)[C@@H](C(=O)NCCCCC(N)=O)N(C)C(=O)[C@H](CC(C)C)NC(=O)[C@@H]1C[C@H](N)CN1C(=O)CC[C@@H](NS(=O)(=O)c1ccc(NC(=O)c2ccc(C(N)=O)cc2)cc1)C(=O)O [Compound 9]	0.29	IC50 [2]: 250 nM; IC50 [3, 7]: 160 nM
CC(C)C[C@H](NC(=O)[C@@H]1C[C@H](N)CN1C(=O)CC[C@@H](NS(=O)(=O)c1ccc(NC(=O)c2ccc(C(N)=O)cc2)cc1)C(=O)O)C(=O)N(C)[C@@H](CCC(=O)O)C(=O)N[C@H](CCCNC(=N)N)C(N)=O [Compound 29] ({PhSO2(4-NHCOPh(4-CONH2))-d(γGlu)}-[Pro(4S-NH2)]L[NMeE][dR]-NH2; C-terminus assumed)		IC50 [4]: 0.14 nM
CC(C)C[C@H](NC(=O)[C@@H]1C[C@H](N)CN1C(=O)CC[C@@H](NS(=O)(=O)c1ccc(NC(=O)c2ccc(C(N)=O)cc2)cc1)C(=O)O)C(=O)N(C)[C@@H](CCC(=O)O)C(=O)NCCCCC(N)=O [Compound 1, N-[4-(4-carbamoylbenzamido)benzene-1-sulfonyl]-D-γ-glutamyl-(4S)-4-amino-L-prolyl-L-1 eucyl-N-(5-amino-5-oxopentyl)-N^2-methyl-L-α-glutamine]	0.22	IC50 [2]: 240 nM; IC50 [3]: 253 nM
IIe-Ser-Tyr-Gly-Asn-Asp-Ala-Leu-Met-Pro [APP-IP]		MMP2-inhibitory effect [5]: selective MMP2-inhibitory effect
COc1ccc(C(=O)Nc2ccc(S(=O)(=O)N[C@H](CC(=O)N[C@@H](CN)C(=O)N[C@@H](CC(C)C)C(=O)N(C)[C@@H](CCC(=O)O)C(=O)N3CCC[C@H]3CC(N)=O)C(=O)O)cc2)cc1 [Compound 691] ({Phenylsulfonyl(4-anisamido)-d(βAsp)}-[Dap]L[NMeE][β3hP]-NH2; N-terminus assumed)	0.065	IC50 [2]: 142 nM; IC50 [3, 7]: 101 nM
CCCOc1ccc(C(=O)Nc2ccc(S(=O)(=O)N[C@H](CCC(=O)N[C@@H](CCN)C(=O)N[C@@H](CC(C)C)C(=O)N(C)[C@H](C(=O)N3CCC[C@H]3CC(N)=O)[C@@H](C)CC)C(=O)O)cc2)cc1 [Compound 696] ({X8-d(γGlu)}-[Dab]L[NMeI][β3hP]-NH2; N-terminus assumed)	0.22	
CC(C)C[C@H](NC(=O)[C@H](CCN)NC(=O)C[C@@H](NS(=O)(=O)c1ccc(-c2ccc(OCCO)cc2)cc1)C(=O)O)C(=O)N(C)[C@@H](CCC(=O)O)C(=O)N1CCC[C@H]1CC(N)=O [Compound 640] ({X7-d(βAsp)}-[Dab]L[NMeE][β3hP]-NH2; N-terminus assumed)	0.38	
CCNC(=O)c1ccc(Oc2ccc(C(=O)NCCCCC(=O)N[C@@H](CCCCN)C(=O)N[C@@H](CC(=O)O)C(=O)N[C@@H](CCN)C(=O)N[C@@H](CC(C)C)C(=O)N(C)[C@@H](CCC(=O)O)C(=O)N3CCC[C@H]3CC(N)=O)cc2)cc1 [Compound 192] ({Benzoyl(4-(4-EtNHCO-PhO))-Ava}-KD[Dab]L[NMeE][β3hP]-NH2; N-terminus assumed)	1.9	
CC[C@H](C)[C@@H](C(=O)N1CCC[C@H]1C(N)=O)N(C)C(=O)[C@H](CC(C)C)NC(=O)[C@H](C)NC(=O)[C@H](CC(=O)O)NC(=O)CN(C)C(=O)CCCNC(=O)c1ccc(Oc2ccccc2)cc1 [Compound 115] ({Benzoyl(4-OPh)-GABA}-[Sar]DAL[NMeI]P-NH2; N-terminus assumed)	0.42	
CC[C@H](C)[C@@H](C(=O)N1CCC[C@H]1C(N)=O)N(C)C(=O)[C@H](CC(C)C)NC(=O)[C@H](CCN)NC(=O)[C@H](CC(=O)O)NC(=O)[C@H](CC(C)C)N(C)C(=O)CCCNC(=O)c1ccc(Oc2ccccc2)cc1 [Compound 136] ({Benzoyl(4-OPh)-GABA}-[NMeL]D[Dab]L[NMeI]P-NH2; N-terminus assumed)	4.7	
CCOc1ccc(C(=O)Nc2ccc(S(=O)(=O)N[C@H](CCC(=O)N[C@@H](CCN)C(=O)N[C@@H](CC(C)C)C(=O)N(C)[C@H](C(=O)N3CCC[C@H]3CC(N)=O)[C@@H](C)CC)C(=O)O)cc2)cc1 [Compound 698] ({X2-d(γGlu)}-[Dab]L[NMeI][β3hP]-NH2; N-terminus assumed)	0.31	
CC[C@H](C)[C@@H](C(=O)N1CCC[C@H]1C(N)=O)N(C)C(=O)[C@H](CC(C)C)NC(=O)[C@H](C)NC(=O)[C@H](CC(=O)O)NC(=O)[C@H](CC(N)=O)N(C)C(=O)CCCNC(=O)c1ccc(Oc2ccccc2)cc1 [Compound 94] ({Benzoyl(4-OPh)-GABA}-[NMeN]DAL[NMeI]P-NH2; N-terminus assumed)	0.088	
CC[C@H](C)[C@@H](C(=O)NC(C)(C)C(N)=O)N(C)C(=O)[C@H](CC(C)C)NC(=O)[C@H](C)NC(=O)[C@H](CC(=O)O)NC(=O)[C@H](CC(N)=O)N(C)C(=O)CCCNC(=O)c1ccc(Oc2ccccc2)cc1 [Compound 98] ({Benzoyl(4-OPh)-GABA}-[NMeN]DAL[NMeI][Aib]-NH2; N-terminus assumed)	0.27	
CC[C@H](C)[C@@H](C(=O)N1CCC[C@H]1CC(N)=O)N(C)C(=O)[C@H](CC(C)C)NC(=O)[C@H](CCN)NC(=O)[C@H](CC(=O)O)NC(=O)[C@H](CC(N)=O)NC(=O)CCCNC(=O)c1ccc(Oc2ccccc2)cc1 [Compound 106]		IC50 [1]: 0.16 nM
